Source: PubChem BioAssay (NCI)
“And” between values parts separate entries of the source, which are not always exact repeats. Identical values can stand only once.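 Grown in 96-well plates, cells were treated for 48 hours with each compound at five concentrations. Insufficient inhibition: endpoint recorded as highest concentration tested. GI50 is the concentration that inhibits growth by half. TGI: concentration producing complete growth inhibition.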

What was measured:
Assay in all cases: NCI-60 cell line screen, 48 h
UACC-257 melanoma = tested on: UACC-257 melanoma
T-47D breast = tested on: T-47D breast
SF-268 CNS = tested on: SF-268 CNS
LOX IMVI melanoma = tested on: LOX IMVI melanoma
UACC-62 melanoma = tested on: UACC-62 melanoma
SK-MEL-5 melanoma = tested on: SK-MEL-5 melanoma
MOLT-4 leukemia = tested on: MOLT-4 leukemia

| Compound | GI50 (UACC-257 melanoma) | TGI (UACC-257 melanoma) | GI50 (T-47D breast) | TGI (T-47D breast) | GI50 (SF-268 CNS) | TGI (SF-268 CNS) | GI50 (LOX IMVI melanoma) | TGI (LOX IMVI melanoma) | GI50 (UACC-62 melanoma) | TGI (UACC-62 melanoma) | GI50 (SK-MEL-5 melanoma) | TGI (SK-MEL-5 melanoma) | GI50 (MOLT-4 leukemia) | TGI (MOLT-4 leukemia) |
| --- | --- | --- | --- | --- | --- | --- | --- | --- | --- | --- | --- | --- | --- | --- |
| c1ccc(Oc2c3ccccc3nc3ccccc23)cc1 | 9.59 µM | 26.3 µM | 2.81 µM | 10.9 µM | 5.28 µM | 17.3 µM | 1.73 µM | 11.8 µM | 4.97 µM | 16.9 µM | 3.5 µM | 11.7 µM | 0.82 µM | 48 µM |
| O=C1NC(=O)[C@@H](c2cn3c4c(cccc24)CCC3)[C@@H]1c1c[nH]c2ccccc12 | 0.712 µM and 2.51 µM | > 10 µM and 29.8 µM | 0.456 µM and 0.625 µM | > 10 µM and 32.4 µM | 1.32 µM and 0.911 µM | > 10 µM and 17.5 µM | 0.601 µM and 0.67 µM | > 10 µM and 14.8 µM | 0.443 µM and 0.51 µM | > 10 µM and 18.3 µM | 0.266 µM and 0.289 µM | 1.36 µM and 3.07 µM | 0.717 µM and 0.891 µM | > 10 µM and 18.1 µM |
| CCN(CC)c1ccc2[nH]c3c(C(N)=O)cc(=O)c(=O)c=3oc2c1 | 0.683 µM | 3.25 µM | 2.58 µM | > 100 µM | 1.98 µM | 15.1 µM | 0.581 µM | 6.3 µM | 1.59 µM | 4.75 µM | 1.22 µM | 2.49 µM | – | – |
| CC(=O)C(C(=N)C#N)C(=O)Nc1ccccc1 (stereo not drawn) | – | > 100 µM | – | > 100 µM | – | > 100 µM | – | > 100 µM | – | > 100 µM | – | > 100 µM | – | > 100 µM |
| O=C(CCl)Nc1ccccc1SCc1cc(Cl)cc2c1OCOC2 | – | – | 9.82 µM | 45.2 µM | 7.14 µM | 23.5 µM | 2.16 µM | 5.1 µM | 5.44 µM | 19.9 µM | 4.09 µM | 16.4 µM | 2.6 µM | 7.51 µM |
| CC1=C(C(=O)Nc2ccc(F)c(Cl)c2)C(c2cccc(O)c2)NC(=S)N1 (stereo not drawn) | 16.5 µM | 44.4 µM | > 50 µM | > 50 µM | 17.8 µM | > 50 µM | 13.7 µM | 41 µM | 11.9 µM | 36.6 µM | 11.2 µM | 40.3 µM | – | – |
| COc1cc(/C=C2\CC(C)CC3C2=NN(c2ccccc2)C3c2cc(OC)c(OC)c(OC)c2)cc(OC)c1OC (stereo not drawn) | 20.4 µM | > 100 µM | 4.07 µM | 31.7 µM | 14.1 µM | 44.6 µM | 9.69 µM | 27.8 µM | 11.7 µM | 57.1 µM | 11.8 µM | 24.2 µM | 13 µM | > 100 µM |
| CCOC(=O)c1[nH]c2cccc3c2c1CC(Br)C3=O (stereo not drawn) | – | 28.6 µM | – | 40.9 µM | – | 32.9 µM | – | 31.8 µM | – | – | – | 33.1 µM | – | 6.33 µM |
| O=C(CSc1nc2ccc([N+](=O)[O-])cc2[nH]1)Nc1cccc(C(F)(F)F)c1 | 1.33 µM | 6.63 µM | 1.14 µM | 11.8 µM | 2.73 µM | 13.9 µM | 2.95 µM | 13 µM | 1.1 µM | 8.85 µM | 1.03 µM | 2.57 µM | 2.71 µM | 19.5 µM |
| C[C@@H](Oc1cc(-c2cnn(C3CCNCC3)c2)cnc1N)c1c(Cl)ccc(F)c1Cl | 1.52 µM | 3.15 µM | 1.71 µM | 7.9 µM | 3.48 µM | > 10 µM | 1.17 µM | 2.64 µM | 1.54 µM | 4.66 µM | 1.47 µM | 2.84 µM | 0.701 µM | 4.39 µM |
| Cc1cc(S(=O)(=O)Nc2nnc(-c3ccco3)c(-c3ccco3)n2)c(SCc2ccccc2)cc1Cl | 25.9 µM | 67.6 µM | 25.2 µM | 48.6 µM | 20.1 µM | 41.2 µM | 24.7 µM | 45.4 µM | 19.4 µM | 37.2 µM | 17.5 µM | 32.5 µM | 17.9 µM | 53 µM |
| COc1cccc(-c2nc(-c3ccc(NS(=O)(=O)c4ccccc4)cc3)[nH]c2-c2ccnc(Br)c2)c1 | 3.11 µM | 30.3 µM | 2.74 µM | > 100 µM | 3.34 µM | > 100 µM | 1.56 µM | 3.44 µM | 2.58 µM | 8.56 µM | 1.87 µM | 3.49 µM | 2.74 µM | > 100 µM |
| CN(C)CCCNC(=O)c1cc(NC(=O)c2cc(NC(=O)CCCN3c4ccccc4C=Cc4ccccc43)cn2C)cn1C | 4.5 µM | 30.6 µM | 17.1 µM | > 100 µM | 5.06 µM | > 100 µM | – | – | – | – | – | – | 2.88 µM | > 100 µM |
| Cc1ccc(C)c(-n2c(-c3ccc(Br)cc3)csc2=NC(=O)c2ccccc2F)c1 | > 100 µM | > 100 µM | – | – | > 100 µM | > 100 µM | > 100 µM | > 100 µM | > 100 µM | > 100 µM | 2.62 µM | > 100 µM | – | – |
| Clc1ccc(N2COOC3(OOC2)C2CC4CC(C2)CC3C4)cc1 | > 54.4 µM | > 100 µM | 4.97 µM | > 100 µM | 5.88 µM | > 67.4 µM | 0.15 µM | 2.44 µM | 1.01 µM | > 43 µM | 1.25 µM | > 24.2 µM | 3.82 µM | > 50.7 µM |
| O=C1NC(=O)C2=C1CCC2O (stereo not drawn) | – | > 100 µM | – | > 100 µM | – | > 100 µM | – | > 100 µM | – | > 100 µM | – | – | – | > 100 µM |
| O=P(Oc1ccccc1)(Oc1ccccc1)C(O)c1ccccc1 (stereo not drawn) | 36.5 µM | > 100 µM | 25.2 µM | > 100 µM | > 100 µM | > 100 µM | > 100 µM | > 100 µM | 44.8 µM | > 100 µM | 53.1 µM | > 100 µM | > 100 µM | > 100 µM |
| O=C(Nc1cccc(C2=NCCN2)c1)c1ccc(OCCCOc2ccc(C(=O)Nc3cccc(C4=NCCN4)c3)cc2)cc1 | – | – | – | – | – | – | – | – | 1.41 µM | 45.7 µM | – | – | 3.86 µM | > 100 µM |
| COc1cccc2c(Nc3ccc(C(=O)NCCNCCO)cc3)cc(-c3ccccc3)nc12 | 39 µM | > 100 µM | 23 µM | 62 µM | – | – | 3.17 µM | 23.2 µM | 62.4 µM | > 100 µM | 38.6 µM | > 100 µM | – | – |
